Reference: ChEMBL document CHEMBL3352216, “Triterpene glycosides from red ginseng marc and their anti-inflammatory activities” (Bioorg Med Chem Lett, 2014)
≈ marks a conversion by molar mass, not a printed value.

Assays:
[1] = Cytotoxicity against LPS-stimulated mouse RAW264.7 cells assessed as cell viability at 3 uM after 24 hrs by MTT assay (reference value: 100%); format: cell-based; details: LPS-stimulated RAW264.7 cells, read-out: Activity
RAW264.7 [2] = assay: Antiinflammatory activity in LPS-stimulated mouse RAW264.7 cells assessed as reduction in nitric oxide production after 24 hrs by Griess method based ELISA; format: functional, cell-based; details: RAW264.7, 24 h
RAW264.7 [3] = assay: Antiinflammatory activity in LPS-stimulated mouse RAW264.7 cells assessed as reduction in nitric oxide production at 1.5 uM after 24 hrs by Griess method based ELISA (reference value: 52.4 +/- 0.9 uM); format: functional
[4] = Cytotoxicity against LPS-stimulated mouse RAW264.7 cells assessed as cell viability at 1.5 uM after 24 hrs by MTT assay (reference value: 100%); format: cell-based; details: LPS-stimulated RAW264.7 cells, read-out: Activity
RAW264.7 [5] = assay: Antiinflammatory activity in LPS-stimulated mouse RAW264.7 cells assessed as reduction in nitric oxide production at 3 uM after 24 hrs by Griess method based ELISA (reference value: 52.4 +/- 0.9 uM); format: functional
[6] = Cytotoxicity against LPS-stimulated mouse RAW264.7 cells assessed as cell viability at 120 uM after 24 hrs by MTT assay (reference value: 100%); format: cell-based; details: LPS-stimulated RAW264.7 cells, read-out: Activity
[7] = Cytotoxicity against LPS-stimulated mouse RAW264.7 cells assessed as cell viability at 80 uM after 24 hrs by MTT assay (reference value: 100%); format: cell-based; details: LPS-stimulated RAW264.7 cells, read-out: Activity
RAW264.7 [8] = assay: Antiinflammatory activity in LPS-stimulated mouse RAW264.7 cells assessed as reduction in nitric oxide production at 120 uM after 24 hrs by Griess method based ELISA (reference value: 52.4 +/- 0.9 uM); format: functional
RAW264.7 [9] = assay: Antiinflammatory activity in LPS-stimulated mouse RAW264.7 cells assessed as reduction in nitric oxide production at 80 uM after 24 hrs by Griess method based ELISA (reference value: 52.4 +/- 0.9 uM); format: functional
[10] = Cytotoxicity against LPS-stimulated mouse RAW264.7 cells assessed as cell viability at 40 uM after 24 hrs by MTT assay (reference value: 100%); format: cell-based; details: LPS-stimulated RAW264.7 cells, read-out: Activity
RAW264.7 [11] = assay: Antiinflammatory activity in LPS-stimulated mouse RAW264.7 cells assessed as reduction in nitric oxide production at 40 uM after 24 hrs by Griess method based ELISA (reference value: 52.4 +/- 0.9 uM); format: functional

Row | SMILES | viability at 24 h, 3 µM [1] | IC50 (RAW264.7 [2]) | Activity (RAW264.7 [3]) | viability at 24 h, 1.5 µM [4] | Activity (RAW264.7 [5]) | viability at 24 h, 120 µM [6] | viability at 24 h, 80 µM [7] | Activity (RAW264.7 [8]) | Activity (RAW264.7 [9]) | viability at 24 h, 40 µM [10] | Activity (RAW264.7 [11])
1 | O=c1c(O)c(-c2ccc(O)c(O)c2)oc2cc(O)cc(O)c12 [QUERCETIN] | 104% | 2.9 µg/mL (≈ 9.6 µM) | 20.8 µM | 104% | 13.5 µM |  |  |  |  |  | 
2 | C[C@@H]1C[C@@H](O)[C@]2(C)CC[C@]3(C)[C@H](CC[C@@H]4[C@@]5(C)CC[C@H](O[C@@H]6O[C@H](CO)[C@@H](O)[C@H](O)[C@H]6O[C@@H]6O[C@H](CO)[C@@H](O)[C@H](O)[C@H]6O)C(C)(C)[C@@H]5CC[C@]43C)[C@@H]2[C@]1(C)O |  | 127 µg/mL (≈ 161 µM) |  |  |  | 73.9% | 91.7% | 30.8 µM | 40.4 µM | 90.3% | 54.5 µM
